Tests used:
Settings in all cases: tested as the 3H-labelled form
[1] = tested on: Human immunodeficiency virus; experiment: Inhibition of HIV wild type integrase assessed as strand transfer activity using U5 GTCAGT LTR by scintillation proximity assay relative to wild type LTR; design: scale not given: the % may be the effect or the level left
[2] = tested on: Human immunodeficiency virus; experiment: Inhibition of HIV wild type integrase assessed as specific strand transfer activity using U5 dTCA LTR by scintillation proximity assay relative to wild type LTR; design: scale not given: the % may be the effect or the level left
[3] = tested on: Human immunodeficiency virus type 1 integrase (Human immunodeficiency virus 1), Q7ZJM1 [N155H]; experiment: Inhibition of HIV recombinant integrase N155H mutant assessed as specific strand transfer activity using U5 GTC LTR by scintillation proximity assay relative to wild type LTR; design: scale not given: the % may be the effect or the level left
[4] = tested on: Human immunodeficiency virus; experiment: Binding affinity to HIV wild type integrase using U5 GTCAGT LTR relative to wild type LTR
[5] = tested on: Human immunodeficiency virus; experiment: Binding affinity to HIV wild type integrase using U5 GTCA LTR relative to wild type LTR
[6] = tested on: Human immunodeficiency virus type 1 integrase (Human immunodeficiency virus 1), Q7ZJM1 [Q148R]; experiment: Binding affinity to HIV recombinant integrase Q148R mutant using U5 ApTCA LTR relative to wild type LTR
[7] = tested on: Human immunodeficiency virus type 1 integrase (Human immunodeficiency virus 1), Q7ZJM1 [N155H]; experiment: Inhibition of HIV recombinant integrase N155H mutant assessed as specific strand transfer activity using U5 TTCA LTR by scintillation proximity assay relative to wild type LTR; design: scale not given: the % may be the effect or the level left
[8] = tested on: Human immunodeficiency virus; experiment: Inhibition of HIV wild type integrase assessed as strand transfer activity using U5 GCCA LTR by scintillation proximity assay relative to wild type LTR; design: scale not given: the % may be the effect or the level left
[9] = tested on: Human immunodeficiency virus; experiment: Inhibition of HIV wild type integrase assessed as specific strand transfer activity using U5 GdCA LTR by scintillation proximity assay relative to wild type LTR; design: scale not given: the % may be the effect or the level left
[10] = tested on: Human immunodeficiency virus; experiment: Binding affinity to HIV wild type integrase using U5 GTCACA LTR relative to wild type LTR
[11] = tested on: Human immunodeficiency virus; experiment: Binding affinity to HIV wild type integrase using U5 ATCA LTR relative to wild type LTR
[12] = tested on: Human immunodeficiency virus; experiment: Inhibition of HIV wild type integrase assessed as strand transfer activity using U5 ATCA LTR by scintillation proximity assay relative to wild type LTR; design: scale not given: the % may be the effect or the level left
[13] = tested on: Human immunodeficiency virus; experiment: Inhibition of HIV wild type integrase assessed as strand transfer activity using U5 GdCA LTR by scintillation proximity assay relative to wild type LTR; design: scale not given: the % may be the effect or the level left
[14] = tested on: Human immunodeficiency virus type 1 integrase (Human immunodeficiency virus 1), Q7ZJM1 [Q148R]; experiment: Binding affinity to HIV recombinant integrase Q148R mutant using U5 GdCA LTR relative to wild type LTR
[15] = tested on: Human immunodeficiency virus; experiment: Inhibition of HIV wild type integrase assessed as strand transfer activity using U5 dTCA LTR by scintillation proximity assay relative to wild type LTR; design: scale not given: the % may be the effect or the level left
[16] = tested on: Human immunodeficiency virus type 1 integrase (Human immunodeficiency virus 1), Q7ZJM1 [N155H]; experiment: Binding affinity to HIV recombinant integrase N155H mutant using U5 GTC LTR relative to wild type LTR
[17] = tested on: Human immunodeficiency virus type 1 integrase (Human immunodeficiency virus 1), Q7ZJM1 [N155H]; experiment: Inhibition of HIV recombinant integrase N155H mutant assessed as specific strand transfer activity using U5 GdCA LTR by scintillation proximity assay relative to wild type LTR; design: scale not given: the % may be the effect or the level left
[18] = tested on: Human immunodeficiency virus; experiment: Binding affinity to HIV wild type integrase using U5 GTC LTR relative to wild type LTR
[19] = tested on: Human immunodeficiency virus type 1 integrase (Human immunodeficiency virus 1), Q7ZJM1 [N155H]; experiment: Inhibition of HIV recombinant integrase N155H mutant assessed as strand transfer activity using U5 INTCA LTR by scintillation proximity assay relative to wild type LTR; design: scale not given: the % may be the effect or the level left
[20] = tested on: Human immunodeficiency virus; experiment: Binding affinity to HIV wild type integrase using U5 GTGA LTR relative to wild type LTR
[21] = tested on: Human immunodeficiency virus; experiment: Inhibition of HIV wild type integrase assessed as specific strand transfer activity using U5 GTTA LTR by scintillation proximity assay relative to wild type LTR; design: scale not given: the % may be the effect or the level left
[22] = tested on: Human immunodeficiency virus type 1 integrase (Human immunodeficiency virus 1), Q7ZJM1 [Q148R]; experiment: Inhibition of HIV recombinant integrase Q148R mutant assessed as strand transfer activity using U5 TTCA LTR by scintillation proximity assay relative to wild type LTR; design: scale not given: the % may be the effect or the level left
[23] = tested on: Human immunodeficiency virus type 1 integrase (Human immunodeficiency virus 1), Q7ZJM1 [N155H]; experiment: Binding affinity to HIV recombinant integrase N155H mutant using U5 TTCA LTR relative to wild type LTR
[24] = tested on: Human immunodeficiency virus; experiment: Binding affinity to HIV wild type integrase using U5 GTdA LTR relative to wild type LTR
[25] = tested on: Human immunodeficiency virus; experiment: Inhibition of HIV wild type integrase assessed as specific strand transfer activity using U5 GGCA LTR by scintillation proximity assay relative to wild type LTR; design: scale not given: the % may be the effect or the level left
[26] = tested on: Human immunodeficiency virus; experiment: Inhibition of HIV wild type integrase assessed as strand transfer activity using U5 GACA LTR by scintillation proximity assay relative to wild type LTR; design: scale not given: the % may be the effect or the level left
[27] = tested on: Human immunodeficiency virus; experiment: Binding affinity to HIV wild type integrase U5 GACA/CT LTR relative to wild type LTR
[28] = tested on: Human immunodeficiency virus; experiment: Inhibition of HIV wild type integrase assessed as strand transfer activity using U5 GTCT LTR by scintillation proximity assay relative to wild type LTR; design: scale not given: the % may be the effect or the level left
[29] = tested on: Human immunodeficiency virus; experiment: Inhibition of HIV wild type integrase assessed as specific strand transfer activity using U5 TTCA LTR by scintillation proximity assay relative to wild type LTR; design: scale not given: the % may be the effect or the level left
[30] = tested on: Human immunodeficiency virus; experiment: Inhibition of U5 GddA LTR HIV wild type integrase assessed as strand transfer activity using by scintillation proximity assay relative to wild type LTR; design: scale not given: the % may be the effect or the level left
[31] = tested on: Human immunodeficiency virus; experiment: Inhibition of HIV wild type integrase assessed as strand transfer activity using U5 GTCA/CG LTR by scintillation proximity assay relative to wild type LTR; design: scale not given: the % may be the effect or the level left
[32] = tested on: Human immunodeficiency virus; experiment: Binding affinity to HIV wild type integrase using U5 GTGT LTR relative to wild type LTR
[33] = tested on: Human immunodeficiency virus; experiment: Inhibition of HIV wild type integrase assessed as strand transfer activity using U5 GTC LTR by scintillation proximity relative; design: scale not given: the % may be the effect or the level left
[34] = tested on: Human immunodeficiency virus; experiment: Inhibition of HIV wild type integrase assessed as strand transfer activity using U5 GTTA LTR by scintillation proximity assay relative to wild type LTR relative to wild type LTR; design: scale not given: the % may be the effect or the level left
[35] = tested on: Human immunodeficiency virus; experiment: Inhibition of HIV wild type integrase assessed as strand transfer activity using U5 TTCA LTR by scintillation proximity assay relative to wild type LTR; design: scale not given: the % may be the effect or the level left
[36] = tested on: Human immunodeficiency virus; experiment: Binding affinity to HIV wild type integrase using U5 GTCA/CG LTR relative to wild type LTR
[37] = tested on: Human immunodeficiency virus; experiment: Inhibition of HIV wild type integrase assessed as specific strand transfer activity using U5 GTdA LTR by scintillation proximity assay relative to wild type LTR; design: scale not given: the % may be the effect or the level left
[38] = tested on: Human immunodeficiency virus type 1 integrase (Human immunodeficiency virus 1), Q7ZJM1 [Q148R]; experiment: Binding affinity to HIV recombinant integrase Q148R mutant using U5 INTCA LTR relative to wild type LTR
[39] = tested on: Human immunodeficiency virus; experiment: Inhibition of HIV wild type integrase assessed as strand transfer activity U5 CTCA LTR by scintillation proximity assay relative to wild type LTR; design: scale not given: the % may be the effect or the level left
[40] = tested on: Human immunodeficiency virus; experiment: Inhibition of HIV wild type integrase assessed as strand transfer activity using U5 GdC LTR by scintillation proximity assay relative to wild type LTR; design: scale not given: the % may be the effect or the level left
[41] = tested on: Human immunodeficiency virus; experiment: Inhibition of HIV wild type integrase assessed as specific strand transfer activity using U5 GTC LTR by scintillation proximity assay relative to wild type LTR; design: scale not given: the % may be the effect or the level left
[42] = tested on: Human immunodeficiency virus; experiment: Inhibition of HIV wild type integrase assessed as strand transfer activity using U5 GTGC LTR by scintillation proximity assay relative to wild type LTR; design: scale not given: the % may be the effect or the level left
[43] = tested on: Human immunodeficiency virus type 1 integrase (Human immunodeficiency virus 1), Q7ZJM1 [Q148R]; experiment: Inhibition of U5 GTdA LTR HIV recombinant integrase Q148R mutant assessed as specific strand transfer activity using by scintillation proximity assay relative to wild type LTR; design: scale not given: the % may be the effect or the level left
[44] = tested on: Human immunodeficiency virus type 1 integrase (Human immunodeficiency virus 1), Q7ZJM1 [Q148R]; experiment: Inhibition of U5 INTCA LTR HIV recombinant integrase Q148R mutant assessed as specific strand transfer activity using by scintillation proximity assay relative to wild type LTR; design: scale not given: the % may be the effect or the level left

SMILES: Cn1c(N2CCCCS2(=O)=O)nc(C(=O)NCc2ccc(F)cc2)c(O)c1=O [BMS-707035]
- Activity [1]: 75%
- Activity [2]: 67%
- Activity [3]: 107%
- Activity [4]: 75%
- Activity [5]: 75%
- Activity [6]: 0.5%
- Activity [7]: > 20%
- Activity [8]: 75%
- Activity [9]: 103%
- Activity [10]: 75%
- Activity [11]: < 25%
- Activity [12]: 75%
- Activity [13]: 70%
- Activity [14]: 3%
- Activity [15]: 10%
- Activity [16]: 4%
- Activity [17]: 62%
- Activity [18]: 59%
- Activity [19]: 23%
- Activity [20]: 74%
- Activity [21]: 143%
- Activity [22]: 4%
- Activity [23]: 1%
- Activity [24]: 37%
- Activity [25]: 8%
- Activity [26]: 75%
- Activity [27]: < 25%
- Activity [28]: 75%
- Activity [29]: 154%
- Activity [30]: 1%
- Activity [31]: < 25%
- Activity [32]: 25%
- Activity [33]: 109%
- Activity [34]: 86%
- Activity [35]: 25%
- Activity [36]: 25%
- Activity [37]: 42%
- Activity [38]: 2%
- Activity [39]: 40%
- Activity [40]: 10%
- Activity [41]: 100%
- Activity [42]: 25%
- Activity [43]: > 50%
- Activity [44]: > 12%
